The target in data set [1] is PARP-1 enzyme (Homo sapiens, UniProt P09874). In words: In vitro scintillation proximity assay (SPA) for PARP-1 inhibitory activity. It counts as biochemical. The procedure: In Vitro Scintillation Proximity Assay (SPA) for PARP-1 Inhibitory Activity
Compounds of the present invention were tested in an in vitro assay based on SPA technology (proprietary to Amersham Pharmacia Biotech).
In principle, the assay relies upon the well established SPA technology for the detection of poly(ADP-ribosyl)ation of biotinylated target proteins, i.e histones. This ribosylation is induced using nicked DNA activated PARP-1 enzyme and [^3H]-nicotinamide adenine dinucleotide ([^3H]-NAD^+) as ADP-ribosyl donor.
As inducer of PARP-1 enzyme activity, nicked DNA was prepared. For this, 25 mg of DNA (supplier: Sigma) was dissolved in 25 ml DNAse buffer (10 mM Tris-HCl, pH 7.4; 0.5 mg/ml Bovine Serum Albumine (BSA); 5 mM MgCl2.6H2O and 1 mM KCl) to which 50 μl DNAse solution (1 mg/ml in 0.15 M NaCl) was added. After an incubation of 90 min. at 37° C., the reaction was terminated by adding 1.45 g NaCl, followed by a further incubation at 58° C. for 15 min. The reaction mixture was cooled on ice and dialysed at 4° C. for respectively 1.5 and 2 hours against 1.5 l of 0.2 M KCl, and twice against 1.5 l of 0.01 M KCl for 1.5 and 2 h respectively. The mixture was aliquoted and stored at −20° C. Histones (1 mg/ml, type II-A, supplier: Sigma) were biotinylated using the biotinylation kit of Amersham and stored aliquoted at −20° C. A stock solution of 100 mg/ml SPA poly(vinyl toluene) (PVT) beads (supplier: Amersham) was made in PBS. A stock solution of [^3H]-NAD^+ was made by adding 120 μl of [^3H]-NAD^+ (0.1 mCi/ml, supplier: NEN) to 6 ml incubation buffer (50 mM Tris/HCl, pH 8; 0.2 mM DTT; 4 mM MgCl2). A solution of 4 mM NAD^+ (supplier: Roche) was made in incubation buffer (from a 100 mM stock solution in water stored at −20° C.). The PARP-1 enzyme was produced using art known techniques, i.e. cloning and expression of the protein starting from human liver cDNA. Information concerning the used protein sequence of the PARP-1 enzyme including literature references can be found in the Swiss-Prot database under primary accession number P09874. Biotinylated histones and PVT-SPA beads were mixed and pre-incubated for 30 min. at room temperature. PARP-1 enzyme (concentration was lot dependent) was mixed with the nicked DNA and the mixture was pre-incubated for 30 min. at 4° C. Equal parts of this histones/PVT-SPA beads solution and PARP-1 enzyme/DNA solution were mixed and 75 μl of this mixture together with 1 μl of compound in DMSO and 25 μl of [^3H]-NAD^+ was added per well into a 96-well microtiterplate. The final concentrations in the incubation mixture were 2 μg/ml for the biotinylated histones, 2 mg/ml for the PVT-SPA beads, 2 μg/ml for the nicked DNA and between 5-10 μg/ml for the PARP-1 enzyme. After incubation of the mixture for 15 min. at room temperature, the reaction was terminated by adding 100 μl of 4 mM NAD in incubation buffer (final concentration 2 mM) and plates were mixed.
The beads were allowed to sediment for at least 15 min. and plates transferred to a TopCountNXT™ (Packard) for scintillation counting, values were expressed as counts per minute (cpm). For each experiment, controls (containing PARP-1 enzyme and DMSO without compound), a blank incubation (containing DMSO but no PARP-1 enzyme or compound) and samples (containing PARP-1 enzyme and compound dissolved in DMSO) were run in parallel. All compounds tested were dissolved and eventually further diluted in DMSO. […] In each test, the blank value was subtracted from both the control and the sample values. The control sample represented maximal PARP-1 enzyme activity. For each sample, the amount of cpm was expressed as a percentage of the mean cpm value of the controls. When appropriate, IC50-values (concentration of the drug, needed to reduce the PARP-1 enzyme activity to 50% of the control) were computed using linear interpolation between the experimental points just above and below the 50% level. […]
(In general: In a scintillation proximity assay essentially only radioactivity close to the scintillant gives light.)

The mark [2] stands for this setting: [3H]-NAD+, nicked DNA, biotinylated histones, read-out: in vitro SPA assay PARP-1 pIC50 (converted).

Read-outs that look alike come from different tables or passages of the source.

Sequence of PARP-1 enzyme (P09874 whole entry): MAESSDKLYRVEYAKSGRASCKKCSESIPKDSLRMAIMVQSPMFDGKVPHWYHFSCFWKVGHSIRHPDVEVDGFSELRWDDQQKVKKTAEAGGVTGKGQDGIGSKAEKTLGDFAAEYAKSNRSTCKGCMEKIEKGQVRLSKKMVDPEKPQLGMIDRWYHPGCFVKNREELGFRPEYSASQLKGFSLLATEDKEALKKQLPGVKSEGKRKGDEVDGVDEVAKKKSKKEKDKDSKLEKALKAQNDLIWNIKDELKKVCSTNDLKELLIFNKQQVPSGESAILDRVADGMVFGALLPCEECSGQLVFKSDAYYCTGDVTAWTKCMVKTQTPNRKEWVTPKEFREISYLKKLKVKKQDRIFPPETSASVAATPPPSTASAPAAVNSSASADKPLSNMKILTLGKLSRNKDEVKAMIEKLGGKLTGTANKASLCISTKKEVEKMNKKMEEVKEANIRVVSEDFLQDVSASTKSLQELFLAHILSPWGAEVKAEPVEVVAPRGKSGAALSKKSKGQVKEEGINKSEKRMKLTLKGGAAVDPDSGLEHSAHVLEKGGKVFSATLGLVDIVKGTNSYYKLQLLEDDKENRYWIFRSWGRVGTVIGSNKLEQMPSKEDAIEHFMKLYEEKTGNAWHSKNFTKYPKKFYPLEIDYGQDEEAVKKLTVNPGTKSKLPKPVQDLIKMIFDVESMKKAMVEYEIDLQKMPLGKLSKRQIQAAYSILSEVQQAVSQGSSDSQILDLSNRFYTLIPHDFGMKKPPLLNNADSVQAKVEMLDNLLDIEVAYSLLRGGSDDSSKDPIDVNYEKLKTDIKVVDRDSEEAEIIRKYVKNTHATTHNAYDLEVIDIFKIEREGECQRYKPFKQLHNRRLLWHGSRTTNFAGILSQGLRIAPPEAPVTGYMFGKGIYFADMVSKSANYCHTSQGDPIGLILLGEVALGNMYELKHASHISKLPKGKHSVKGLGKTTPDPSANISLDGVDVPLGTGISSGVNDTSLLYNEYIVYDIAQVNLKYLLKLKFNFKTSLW

Turning to `O=C1NCN(c2ccccc2)C12CCN(CCCc1nc3ccccc3c(=O)[nH]1)CC2` [Compound 2], the IC50 in data set [1] (setting [2]) was 0.385 µM.

Compound `O=C(CC1CCN(CCc2nc3ccccc3c(=O)[nH]2)CC1)c1ccc(F)cc1` [Compound 3] had a melting point of 159.1 °C. In data set [1] (setting [2]), the IC50 was 0.56 µM.

Turning to `NC(=O)C1(c2ccccc2)CCN(CCCc2nc3ccccc3c(=O)[nH]2)CC1` [Compound 4], the melting point turned out to be 138.9 °C. Further, in data set [1] (setting [2]), the IC50 was 0.02 µM.

For `NC(=O)C1(c2ccccc2)CCN(CCCC2NC(=O)c3ccccc3N2)CC1` (stereo not drawn) [Compound 5], the melting point came to 216.1 °C. In addition, the IC50 in data set [1] (setting [2]) is 0.0229 µM.

Turning to `O=C1NC(CCN2CCC3(CC2)C(=O)NCN3c2ccccc2)Nc2ccccc21` (stereo not drawn) [Compound 6], in data set [1] (setting [2]), the IC50 was 0.178 µM.

Take `O=C1NC(CCCN2CCC(n3c(=O)[nH]c4ccccc43)CC2)Nc2ccccc21` (stereo not drawn) [Compound 7]: the IC50 in data set [1] (setting [2]) was 0.585 µM.

Regarding `O=C(NC1CCN(CCCC2NC(=O)c3ccccc3N2)CC1)c1ccccc1` (stereo not drawn) [Compound 8], the IC50 in data set [1] (setting [2]) was 0.236 µM.

Regarding `O=C(c1ccc(F)cc1)C1CCN(CCc2nc3ccccc3c(=O)[nH]2)CC1` [Compound 9], in data set [1] (setting [2]), the IC50 was 0.611 µM.

`NC(=O)C1(N2CCOCC2)CCN(CCCc2nc3ccccc3c(=O)[nH]2)CC1` [Compound 11]: the IC50 in data set [1] (setting [2]) is 0.188 µM.

`O=C(NC1CCN(CCCc2nc3ccccc3c(=O)[nH]2)CC1)c1ccccc1` [Compound 12]: the IC50 in data set [1] (setting [2]) was 0.117 µM.

`O=C1NC(CCN2CCC(n3c(=O)[nH]c4ccccc43)CC2)Nc2ccccc21` (stereo not drawn) [Compound 13] showed an IC50 in data set [1] of 0.318 µM.

Take `O=C(c1ccc(F)cc1)C1CCN(CCCc2nc3ccccc3c(=O)[nH]2)CC1` [Compound 14]: the IC50 in data set [1] (setting [2]) is 0.0586 µM.

As a reminder, the melting point is the temperature of the solid-liquid transition.

The record behind these values is patent US7875621B2, “Substituted 2-alkyl quinazolinone derivatives as PARP inhibitors” (Janssen Pharmaceutica NV, priority 2004, dated 2011).
